Experimental data as given in article PMC3919114, “Induction of Apoptosis of 2,4′,6-Trihydroxybenzophenone in HT-29 Colon Carcinoma Cell Line” (BioMed Research International, 2014).
Read-outs that look alike come from different tables or passages of the source.

Legend:
[1] = system: breast cancer cell line (MDA-MB231); details: cited from earlier work
Bcl-2 = experiment: Western blot analysis, Bcl-2 expression in HT-29 cells; assay type: cell-based, human; details: IC50 concentration (115 μM), 72 h treatment only
Procedure: (§1) The HT-29 cells were cultured in […] tissue culture flasks and incubated at 37°C under 5% CO2 until confluent. […] After incubation at the various times, the cells were detached with accutase in PBS, washed thoroughly with PBS twice, and were then lysed with protein lysis buffer (Sigma, USA) containingprotease inhibitors and shaken by hand for 15 min at room temperature. The lysates were then centrifuged at 13,000 ×g for 20 min at 4°C and the supernatant was collected for protein samples and kept at […] until SDS page analysis. Protein concentration was determined using a BCA (bicinchoninic acid) protein assay kit (Invitrogen, USA) with bovine serum albumin as the standard.
(§2) The proteins were transferred into polyvinylidene difluoride (PVDF) membranes by semidry transfer. Bands were visualized using the Western Max Horseradish Peroxidase Chromogenic Detection Kit protocol (AMRESCO, USA). Briefly, the membranes were blocked in a blocking buffer for 30 min at room temperature. Primary antibodies for Bcl-2, Bcl-xL, PUMA, Mcl-1, Bak, Bad, and Bax were then added. The membranes were incubated with gentle agitation at room temperature overnight. After incubation, the membranes were washed with washing buffer two times and then incubated with Western Max HRP Conjugated Anti-Rabbit Antibody for 45 min at room temperature with gentle agitation. […]

Mcl-1 = experiment: Western blot analysis, Mcl-1 expression in HT-29 cells; assay type: cell-based, human; details: IC50 concentration (115 μM), 24 h, 48 h and 72 h
Procedure: as §1, §2

[2] = system: human normal fibroblast lung cells (MRC-5); experiment: MTT cell proliferation assay, MRC-5; assay type: cell-based
Procedure: (§3) The HT-29 human colon carcinoma cell line, WRL-68 normal liver cells, and MRC-5 normal lung fibroblast […] cells were purchased from the American Type Culture Collection (ATCC, USA). The cells were placed into tissue culture flasks and grown in a medium containing 10% fetal bovine serum, 100 μg/mL of penicillin/streptomycin, and 100 μg/mL of amphotericin B at 37°C in a humidified atmosphere containing 5% CO2.
(§4) The MTT […]) cell proliferation assay was based on the protocol described by Mosmann. Briefly, cells from a confluent tissue culture flask were spun at 1,000 rpm for five minutes and resuspended in 1.0 mL of growth medium. Cells were then seeded into 96 well plates and incubated in a CO2 incubator at 37°C for 24 hours to allow the cells to adhere and achieve 70%–80% confluence. After 24 hours, the media was removed and the test compound, at varying concentrations of 4, 38, 96, 192, and 384 μM with 200 μL of 10% medium, was added to the respective wells. For negative control, untreated cells were used. After 24 h, 48 h, and 72 h of incubation, respectively, each well had 10 μL of the MTT stock solution added to the test sample and was then incubated in a dark place for three hours. The medium with the MTT solution was removed and 200 μL of absolute DMSO was added to each well in order to solubilise the formazan crystals that had formed. The total amount of formazan crystals was examined by measuring the absorbance at 540 nm using an ELISA plate reader. The assay was carried out in triplicate.
(§5) The percentage of inhibition (%) was calculated using the following formula: (1) percentage of inhibition (%) =OD control−OD sample×100% /OD control, where OD = optical densities.
(§6) The IC50 value is the concentration of test compounds which cause 50% inhibition or cell death, average from three experiments, and was obtained by plotting the percentage of inhibition versus the concentration of test compounds [13].

HT-29 cells [3] = experiment: Morphological detection of apoptosis (inverted and phase-contrast microscopy); assay type: cell-based, human; details: IC50 concentrations (115 μM), 24 h, 48 h, 72 h
Procedure: HT-29 cells were placed in a Petri dish (30 mm) at a density of 1 × 10^5 cells/well plate and grown for 24 h. […] After the various incubation periods, morphological changes in the apoptotic bodies of the HT-29 cells were examined by inverted and phase-contrast microscopy (Leica, Germany) and photographed.

Bak = experiment: Western blot analysis, Bak expression in HT-29 cells; assay type: cell-based, human; details: IC50 concentration (115 μM), 72 h treatment only
Procedure: as §1, §2

[4] = Annexin V-FITC/PI staining assay by flow cytometry; assay type: cell-based, human; details: human, HT-29 cells, 24 h, read-out: viable cells (LL)
Procedure: (§7) The quantification of cell death was determined by flow cytometry using the Annexin V-FITC apoptosis detection kit according to the manufacturer's instructions (BD Pharmingen, BD Bioscience, USA). Briefly, 1 × 10^6 of the HT-29 cells were seeded into each Petri dish (30 mm) and after a 24 h incubation, various concentrations of the test compound were added and incubated for 24 h, 48 h, and 72 h, respectively. The cells were then washed with PBS, suspended in annexin V binding buffer and then added to an annexin V-FITC solution and propidium iodide (PI) for 10 minutes at room temperature. The samples were then analyzed using FACScalibur (BD Bioscience, USA) using CellQuest Pro analysis software (Becton Dickinson, USA).
(§8) Cells were treated with various concentrations (96 μM, 192 μM, and 288 μM) of the compound for 24 h, 48 h, and 72 h, respectively. They were then harvested with accutase and phosphate buffer saline and centrifuged, after which they were stained with Annexin V-FITC and propidium iodide and analyzed in FACScalibur with CellQuest Pro software. The number of early apoptotic cells, late apoptotic cells, live cells, and necrotic cells was counted in every 10,000 cells of each treatment. All data was expressed as the mean ± SD (standard deviation). The standard deviation was calculated for the treated and untreated cells. The SPSS program (version 16.0) found a significant difference between the treated and untreated cells ([…]).

HT-29 cells [5] = experiment: Annexin V-FITC/PI staining assay by flow cytometry; assay type: cell-based, human
Procedure: as §7, §8

[6] = system: human normal liver cells (WRL-68); experiment: MTT cell proliferation assay, WRL-68; assay type: cell-based
Procedure: as §3, §4, §5, §6

[7] = parameters: method as in earlier work; details: from ethyl acetate extract of the leaves; cited from earlier work
HT-29 cells [8] = experiment: Cell cycle analysis by flow cytometry (PI staining); assay type: cell-based, human; details: IC50 value of 115 μM
Procedure: After incubation, the cells were collected by trypsinization, fixed in ethanol, washed in warm PBS, and incubated at −20°C, overnight. Next, the cells were washed with 1 mL of cold PBS and stained with propidium iodide according to the Cycle TEST PLUS DNA Reagent Kit (Becton Dickinson, USA) protocol. The cells were sorted in a FACScalibur flow cytometer (BD, USA) using CellQuest Pro software (Becton Dickinson, USA) and a quantitative analysis of the cell cycle distribution was performed using a trial version of the ModFit LT software, version 4.0.
The HT-29 cells were treated with isolated bioactive 2,4′,6-trihydroxy-4-methoxybenzophenone for 24 h, 48 h, and 72 h. Treated and untreated cells were harvested with accutase and phosphate buffer saline, centrifuged, and stained with propidium iodide. The HT-29 cells were then analyzed by flow cytometry using CellQuest Pro software and their distribution in different phases of the cell cycle is shown in Figure 6(a). The resulting data were tabulated using the trial version of the ModFit L.V 4.0 software to represent a percentage of each cell cycle phase (G0/G1, S, and G2/M), as shown in Figure 6(b).

PUMA = experiment: Western blot analysis, PUMA expression in HT-29 cells; assay type: cell-based, human; details: IC50 concentration (115 μM), 24 h, 48 h and 72 h
Procedure: as §1, §2

[9] = system: HT-29 human colon carcinoma cell line; experiment: MTT cell proliferation assay, HT-29; assay type: cell-based; details: read-out: IC50 against HT-29 cells
Procedure: as §3, §4, §5, §6

[10] = system: human esophageal cancer cells (TE-2); details: cited from earlier work

## COc1cc(O)c(C(=O)c2ccc(O)cc2)c(O)c1 [2,4′,6-trihydroxy-4-methoxybenzophenone]
[1]
  antiproliferation activity against MDA-MB231: displayed antiproliferation activity
Bcl-2
  expression of Bcl-2: only up-regulated for 72 h treatment
Mcl-1
  expression of Mcl-1: significantly upregulated
[2]; MRC5, 24 h
  IC50: ≥ 384 µM
[2]; MRC5, 48 h
  IC50: 269 ± 0.96 µM
[2]; MRC5, 72 h
  IC50: 356 ± 1.21 µM
HT-29 cells [3]
  morphological changes associated to apoptosis: membrane blebbing, cell shrinkage, chromatin condensation, apoptotic nuclei, and DNA fragmentation
Bak
  expression of Bak: only up-regulated for 72 h treatment
[4]; 96 μM
  viability at 24 h, 96 µM: 69.3%
[4]; 192 μM
  viability at 24 h, 192 µM: 35.2%
[4]; 288 μM
  viability at 24 h, 288 µM: 23.8%
HT-29 cells [5]; 96 μM, 24 h
  early apoptotic cells (LR): 2.96%
  late apoptotic cells (UR): 12.28%
  primary necrotic cells (UL): 15.49%
HT-29 cells [5]; 96 μM, 48 h
  early apoptotic cells (LR): 10.87%
  late apoptotic cells (UR): 31.48%
  primary necrotic cells (UL): 8.04%
HT-29 cells [5]; 96 μM, 72 h
  early apoptotic cells (LR): 1.33%
  late apoptotic or secondary necrotic cells (UR): 15.77%
  live cells (LL): 52.21%
  primary necrotic cells (UL): 30.69%
HT-29 cells [5]; 192 μM, 24 h
  early apoptotic cells (LR): 8.46%
  late apoptotic cells (UR): 25.98%
  primary necrotic cells (UL): 30.40%
HT-29 cells [5]; 192 μM, 48 h
  early apoptotic cells (LR): 4.74%
  live cells (LL): 34.22%
  primary necrotic cells (UL): 35.05%
HT-29 cells [5]; 192 μM, 72 h
  early apoptotic cells (LR): 14.34%
  late apoptotic or secondary necrotic cells (UR): 58.97%
  live cells (LL): 12.73%
  primary necrotic cells (UL): 13.96%
HT-29 cells [5]; 288 μM, 24 h
  early apoptotic cells (LR): 6.71%
  late apoptotic cells (UR): 50.81%
  primary necrotic cells (UL): 19.63%
HT-29 cells [5]; 288 μM, 48 h
  early apoptotic cells (LR): 8.51%
  late apoptotic cells (UR): 54.67%
  live cells (LL): 26.80%
  primary necrotic cells (UL): 10.02%
HT-29 cells [5]; 288 μM, 72 h
  early apoptotic cells (LR): 0.28%
  late apoptotic or secondary necrotic cells (UR): 8.45%
  live cells (LL): 54.64%
  primary necrotic cells (UL): 36.63%
[6]; WRL68, 24 h
  IC50: ≥ 384 µM
[6]; WRL68, 48 h
  IC50: 331 ± 0.69 µM
[6]; WRL68, 72 h
  IC50: 235 ± 1.03 µM
[7]
  antioxidant activity: good antioxidant activity
HT-29 cells [8]; 24 h
  cell percentage in the G2/M phase: 13.61%
  cell percentage in the S phase: 15.70%
  percentage of diploid cells in the G0/G1 phase: 70.69%
HT-29 cells [8]; 24 h, 48 h, 72 h, time-dependent
  effect on cell cycle: cell cycle arrest in the G0/G1 phase
HT-29 cells [8]; 48 h
  cell percentage in the G2/M phase: 3.17%
  cell percentage in the S phase: 16.85%
  percentage of diploid cells in the G0/G1 phase: 79.98%
HT-29 cells [8]; 72 h
  cell percentage in the G2/M phase: 3.20%
  cell percentage in the S phase: 8.60%
  percentage of diploid cells in the G0/G1 phase: 88.21%
PUMA
  expression of PUMA: significantly upregulated
[9]; 24 h
  IC50: 172 ± 2.21 µM
[9]; 48 h
  IC50: 144 ± 2.66 µM
[9]; 72 h
  IC50: 122 ± 1.69 µM

## O=C(O)c1cc(O)c(O)c(O)c1 [Gallic acid]
[10]
  anticancer properties against TE-2 cells: possess anticancer properties

## COc1cc(O)c(C(=O)c2ccc(O)cc2)c(O[C@@H]2O[C@H](CO)[C@@H](O)[C@H](O)[C@H]2O)c1 [4′,6-dihydroxy-4-methoxybenzophenone 2-o-β-D-glucopyranoside]
[1]
  antiproliferation activity against MDA-MB231: displayed antiproliferation activity
